This assay deals with T1, KRas-G12D (Homo sapiens, UniProt P01116, G12D).
T1 construct: insert the HiBiT tag onto the N-terminus of one or more of the endogenous KRas alleles; host or cells: AsPC-1 HiBiT-KRasG12D knock-in clone (one tagged allele, two untagged KRasG12D alleles)
Nature of the assay: HiBiT Degradation Assay (G12D), AsPC-1 HiBiT-KRasG12D cells, 24 hr. As to conditions: for Dmax: ASPC1, AsPC-1 cells, maximum degradation observed; for DC50: AsPC-1 cells. It counts as cell-based. A digest of the protocol:
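AsPC-1 cells with CRISPR N-terminal HiBiT knock-in on one endogenous KRasG12D allele, treated 24 hr at 37° C with compound titrations in 0.5% DMSO. Lytic HiBiT luminescence normalized to DMSO, fitted to a 4-parameter model for DC50 and Dmax. Parallel alamar blue (4 hr) checked viability.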

Some results are limits rather than exact numbers.

T1 sequence (P01116 1-188 isoform P01116-2 G12D): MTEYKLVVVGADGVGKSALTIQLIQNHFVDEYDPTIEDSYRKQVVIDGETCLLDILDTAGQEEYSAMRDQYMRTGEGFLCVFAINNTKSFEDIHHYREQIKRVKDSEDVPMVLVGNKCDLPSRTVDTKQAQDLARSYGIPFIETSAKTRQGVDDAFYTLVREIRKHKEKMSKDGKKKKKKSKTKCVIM

Compound `C#Cc1c(F)ccc2cc(O)cc(-c3ncc4c(N5CC6CCC(C5)N6)nc(OCCN5CCC6(CC5)CCN(CC5CCN(c7cc(C)c8c(c7F)CN(C7CCC(=O)NC7=O)C8=O)CC5)CC6)nc4c3F)c12` (stereo not shown) [Compound 153, 3-(5-{4-[(9-{2-[(4-{3,8-diazabicyclo[3.2.1]octan-3-yl}-7-(8-ethynyl-7-fluoro-3-hydroxynaphthalen-1-yl)-8-fluoropyrido[4,3-d]pyrimidin-2-yl)oxy]ethyl}-3,9-diazaspiro[5.5]undecan-3-yl)methyl]piperidin-1-yl}-4-fluoro-7-methyl-1-oxo-2,3-dihydro-1H-isoindol-2-yl)piperidine-2,6-dione] displayed a maximal degradation (Dmax) of over 70% and a half-maximal degradation concentration (DC50) of under 5.1 µM.

The compound `C#Cc1c(F)ccc2cc(O)cc(-c3ncc4c(N5CC6CCC(C5)N6)nc(OCCN5CCC(CN6CC7(CCN(c8cc(C)c9c(c8F)CN(C8CCC(=O)NC8=O)C9=O)CC7)C6)CC5)nc4c3F)c12` (stereo not shown) [Compound 154, 3-(5-{2-[(1-{2-[(4-{3,8-diazabicyclo[3.2.1]octan-3-yl}-7-(8-ethynyl-7-fluoro-3-hydroxynaphthalen-1-yl)-8-fluoropyrido[4,3-d]pyrimidin-2-yl)oxy]ethyl}piperidin-4-yl)methyl]-2,7-diazaspiro[3.5]nonan-7-yl}-4-fluoro-7-methyl-1-oxo-2,3-dihydro-1H-isoindol-2-yl)piperidine-2,6-dione] registered a Dmax of over 70% and a DC50 of under 5.1 µM.

In turn, `C#Cc1c(F)ccc2cccc(-c3ncc4c(N5CC6CCC(C5)N6)nc(OCCN5CCC(CN6CC7(CCN(c8ccc9c(c8F)CN(C8CCC(=O)NC8=O)C9=O)CC7)C6)CC5)nc4c3F)c12` (stereo not shown) [Compound 155] showed a DC50 of over 1 µM.

In turn, `C#Cc1c(F)ccc2cccc(-c3ncc4c(N5CC6CCC(C5)N6)nc(OCCN5CCC6(CC5)CCN(CC5CCN(c7ccc8c(c7F)CN(C7CCC(=O)NC7=O)C8=O)CC5)CC6)nc4c3F)c12` (stereo not shown) [Compound 156] displayed a 50% degradation concentration (DC50) of over 1 µM.

The compound `C#Cc1c(F)ccc2cccc(-c3ncc4c(N5CC6CCC(C5)N6)nc(OCCN5CCC(CC6CCN(CC7CCN(c8cccc9c8CN(C8CCC(=O)NC8=O)C9=O)CC7)CC6)CC5)nc4c3F)c12` (stereo not shown) [Compound 157] showed a 50% degradation concentration (DC50) of over 1 µM.

In the case of `CCc1cccc2c(F)c(O)cc(-c3ncc4c(N5CC6CCC(C5)N6)nc(OCCN5CCC(CC6CCN(c7cccc8c7CN(C7CCC(=O)NC7=O)C8=O)CC6)CC5)nc4c3F)c12` (stereo not shown) [Compound 158], the greatest degradation seen (Dmax) is at most 25% and the 50% degradation concentration (DC50) was over 1 µM.

In turn, `C#Cc1c(F)ccc2cc(O)cc(-c3ncc4c(N5CC6CCC(C5)N6)nc(OCCN5CCC(CN6CCN(CC7CCN(c8ccc9c(c8F)n(C(C)C)c(=O)n9C8CCC(=O)NC8=O)CC7)CC6)CC5)nc4c3F)c12` (stereo not shown) [Compound 159, 3-{5-[4-({4-[(1-{2-[(4-{3,8-diazabicyclo[3.2.1]octan-3-yl}-7-(8-ethynyl-7-fluoro-3-hydroxynaphthalen-1-yl)-8-fluoropyrido[4,3-d]pyrimidin-2-yl)oxy]ethyl}piperidin-4-yl)methyl]piperazin-1-yl}methyl)piperidin-1-yl]-4-fluoro-2-oxo-3-(propan-2-yl)-2,3-dihydro-1H-1,3-benzodiazol-1-yl}piperidine-2,6-dione] had a Dmax of over 70% and a half-maximal degradation concentration (DC50) of under 5.1 µM.

Compound `C#Cc1c(F)ccc2cc(O)cc(-c3ncc4c(N5CC6CCC(C5)N6)nc(OCCN5CCC(C)(CN6CCN(CC7CCN(c8ccc9c(c8)n(C)c(=O)n9C8CCC(=O)NC8=O)CC7)CC6)CC5)nc4c3F)c12` (stereo not shown) [Compound 160, 3-{5-[4-({4-[(1-{2-[(4-{3,8-diazabicyclo[3.2.1]octan-3-yl}-7-(8-ethynyl-7-fluoro-3-hydroxynaphthalen-1-yl)-8-fluoropyrido[4,3-d]pyrimidin-2-yl)oxy]ethyl}-4-methylpiperidin-4-yl)methyl]piperazin-1-yl}methyl)piperidin-1-yl]-3-methyl-2-oxo-2,3-dihydro-1H-1,3-benzodiazol-1-yl}piperidine-2,6-dione] displayed a maximal degradation (Dmax) of over 70% and a 50% degradation concentration (DC50) of under 5.1 µM.

Turning to `C#Cc1c(F)ccc2cc(O)cc(-c3ncc4c(N5CC6CCC(C5)N6)nc(OCCN5CCC(C)(CC6CCN(CC7CCN(c8ccc9c(c8)n(C)c(=O)n9C8CCC(=O)NC8=O)CC7)CC6)CC5)nc4c3F)c12` (stereo not shown) [Compound 161, 3-{5-[4-({4-[(1-{2-[(4-{3,8-diazabicyclo[3.2.1]octan-3-yl}-7-(8-ethynyl-7-fluoro-3-hydroxynaphthalen-1-yl)-8-fluoropyrido[4,3-d]pyrimidin-2-yl)oxy]ethyl}-4-methylpiperidin-4-yl)methyl]piperidin-1-yl}methyl)piperidin-1-yl]-3-methyl-2-oxo-2,3-dihydro-1H-1,3-benzodiazol-1-yl}piperidine-2,6-dione], the Dmax is over 70% and the half-maximal degradation concentration (DC50) was under 5.1 µM.

Regarding `C#Cc1c(F)ccc2cc(O)cc(-c3ncc4c(N5CC6CCC(C5)N6)nc(OCCN5CCN(CC6CCN(CC7CCN(c8ccc9c(c8)n(C)c(=O)n9C8CCC(=O)NC8=O)CC7)CC6)CC5(C)C)nc4c3F)c12` (stereo not shown) [Compound 162, 3-{5-[4-({4-[(4-{2-[(4-{3,8-diazabicyclo[3.2.1]octan-3-yl}-7-(8-ethynyl-7-fluoro-3-hydroxynaphthalen-1-yl)-8-fluoropyrido[4,3-d]pyrimidin-2-yl)oxy]ethyl}-3,3-dimethylpiperazin-1-yl)methyl]piperidin-1-yl}methyl)piperidin-1-yl]-3-methyl-2-oxo-2,3-dihydro-1H-1,3-benzodiazol-1-yl}piperidine-2,6-dione], the Dmax was over 70% and the DC50 was under 5.1 µM.

In turn, `C#Cc1c(F)ccc2cc(O)cc(-c3ncc4c(N5CC6CCC(C5)N6)nc(OCCN5CCC(CC6CCN(CC7CCN(c8ccc9c(c8F)CN([C@@H]8CCC(=O)NC8=O)C9=O)CC7)CC6)CC5)nc4c3F)c12` [Compound 163, (3R)-3-{5-[4-({4-[(1-{2-[(4-{3,8-diazabicyclo[3.2.1]octan-3-yl}-7-(8-ethynyl-7-fluoro-3-hydroxynaphthalen-1-yl)-8-fluoropyrido[4,3-d]pyrimidin-2-yl)oxy]ethyl}piperidin-4-yl)methyl]piperidin-1-yl}methyl)piperidin-1-yl]-4-fluoro-1-oxo-2,3-dihydro-1H-isoindol-2-yl}piperidine-2,6-dione] gave a Dmax of over 70% and a DC50 of under 5.1 µM.

The compound `C#Cc1c(F)ccc2cc(O)cc(-c3ncc4c(N5CC6CCC(C5)N6)nc(OC[C@@H]5C[C@@H](OC6CCN(CC7CN(c8ccc9c(c8)CN(C8CCC(=O)NC8=O)C9=O)C7)CC6)CN5C)nc4c3F)c12` (stereo partly drawn) [Compound 164, 3-(5-{3-[(4-{[(3R,5S)-5-{[(4-{3,8-diazabicyclo[3.2.1]octan-3-yl}-7-(8-ethynyl-7-fluoro-3-hydroxynaphthalen-1-yl)-8-fluoropyrido[4,3-d]pyrimidin-2-yl)oxy]methyl}-1-methylpyrrolidin-3-yl]oxy}piperidin-1-yl)methyl]azetidin-1-yl}-1-oxo-2,3-dihydro-1H-isoindol-2-yl)piperidine-2,6-dione] returned a Dmax of over 70% and a DC50 of under 5.1 µM.

`C#Cc1c(F)ccc2cc(O)cc(-c3ncc4c(N5CC6CCC(C5)N6)nc(OC[C@@H]5C[C@@H](OC6CCN(CC7CCN(c8ccc9c(c8)CN(C8CCC(=O)NC8=O)C9=O)CC7)CC6)CN5CC)nc4c3F)c12` (stereo partly drawn) [Compound 165, 3-(5-{4-[(4-{[(3R,5S)-5-{[(4-{3,8-diazabicyclo[3.2.1]octan-3-yl}-7-(8-ethynyl-7-fluoro-3-hydroxynaphthalen-1-yl)-8-fluoropyrido[4,3-d]pyrimidin-2-yl)oxy]methyl}-1-ethylpyrrolidin-3-yl]oxy}piperidin-1-yl)methyl]piperidin-1-yl}-1-oxo-2,3-dihydro-1H-isoindol-2-yl)piperidine-2,6-dione] yielded a Dmax of over 70% and a 50% degradation concentration (DC50) of under 5.1 µM.

For the compound `C#Cc1c(F)ccc2cc(O)cc(-c3ncc4c(N5CC6CCC(C5)N6)nc(OCCN5CCC(CN6CCC(CC7CCN(c8ccc9c(c8F)n(C)c(=O)n9C8CCC(=O)NC8=O)CC7)CC6)CC5)nc4c3F)c12` (stereo not shown) [Compound 166, 3-{5-[4-({1-[(1-{2-[(4-{3,8-diazabicyclo[3.2.1]octan-3-yl}-7-(8-ethynyl-7-fluoro-3-hydroxynaphthalen-1-yl)-8-fluoropyrido[4,3-d]pyrimidin-2-yl)oxy]ethyl}piperidin-4-yl)methyl]piperidin-4-yl}methyl)piperidin-1-yl]-4-fluoro-3-methyl-2-oxo-2,3-dihydro-1H-1,3-benzodiazol-1-yl}piperidine-2,6-dione], the Dmax is over 70% and the half-maximal degradation concentration (DC50) was under 5.1 µM.

In turn, `C#Cc1c(F)ccc2cc(O)cc(-c3ncc4c(N5CC6CCC(C5)N6)nc(OCCN5CCC(CN6CCC(CC7CCN(c8ccc9c(c8F)n(C(C)C)c(=O)n9C8CCC(=O)NC8=O)CC7)CC6)CC5)nc4c3F)c12` (stereo not shown) [Compound 167, 3-{5-[4-({1-[(1-{2-[(4-{3,8-diazabicyclo[3.2.1]octan-3-yl}-7-(8-ethynyl-7-fluoro-3-hydroxynaphthalen-1-yl)-8-fluoropyrido[4,3-d]pyrimidin-2-yl)oxy]ethyl}piperidin-4-yl)methyl]piperidin-4-yl}methyl)piperidin-1-yl]-4-fluoro-2-oxo-3-(propan-2-yl)-2,3-dihydro-1H-1,3-benzodiazol-1-yl}piperidine-2,6-dione] showed a half-maximal degradation concentration (DC50) of under 5.1 µM.

As for `C#Cc1c(F)ccc2cc(O)cc(-c3ncc4c(N5CC6CCC(C5)N6)nc(OCCN5CCC(CN6CCN(CC7CCN(c8ccc9c(c8F)CN(C8CCC(=O)NC8=O)C9=O)CC7)CC6)CC5(C)C)nc4c3F)c12` (stereo not shown) [Compound 168, 3-{5-[4-({4-[(1-{2-[(4-{3,8-diazabicyclo[3.2.1]octan-3-yl}-7-(8-ethynyl-7-fluoro-3-hydroxynaphthalen-1-yl)-8-fluoropyrido[4,3-d]pyrimidin-2-yl)oxy]ethyl}-2,2-dimethylpiperidin-4-yl)methyl]piperazin-1-yl}methyl)piperidin-1-yl]-4-fluoro-1-oxo-2,3-dihydro-1H-isoindol-2-yl}piperidine-2,6-dione], the greatest degradation seen (Dmax) was over 70% and the half-maximal degradation concentration (DC50) was under 5.1 µM.
